According to patent US11547703B2, “Substituted fused heteroaromatic tricyclic compounds as kinase inhibitors and the use thereof” (IMPACT THERAPEUTICS (SHANGHAI), INC, priority 2017, dated 2023):

How the values were obtained:
ATM enzyme (human) = ATM enzyme (human) (Homo sapiens, UniProt Q13315); assay: ATM kinase assay (HTRF, phosphorylation of GST-cMyc-p53); assay type: biochemical
Protocol: ATM enzyme (human) was added to the reaction solution containing 30 nM GST-cMyc-p53 and 10 μM Mg/ATP, and then 50 times the concentration of the tested compound (or reference compound AZD0156) dissolved in 100% DMSO was added to the final concentration of 10 μM/1 μM/0.1 μM/0.01 μM. The reaction was initiated by the addition of a Mg/ATP mixture and incubation for 30 minutes at room temperature, the reaction was quenched by the addition of a stop solution containing EDTA. Finally, the detection buffer containing the d2-labeled anti-GST monoclonal antibody and the europium-labeled anti-phospho p53 (Ser15) antibody was added. The plate was then read in time resolved fluorescence mode and the homogeneous time resolved fluorescence (HTRF) signal was determined according to the equation: HTRF=10000×(Em665nm/Em620nm). Each compound sample was repeated in duplicate. The negative control contained all components except the ATM enzyme, and the positive control contained all components. All reactions were quenched by adding EDTA.
The compounds were serially diluted to 10 concentrations with 100% DMSO at the ratio of 1:3 and 1:10 (the last concentration was negative control of DMSO), then added to the ATM buffer and diluted to a final concentration of 10, 3, 1, 0.3, 0.1, 0.03, 0.01, 0.003, 0.001 and 0 μM, respectively. ATM kinase inhibition was detected by using the method described above. The curve equation for calculating IC50 value is as follows: […]
wherein, C is the concentration of compound and D is the slope factor. Table 2 summarizes the IC50 values of compounds inhibiting ATM kinase.

[1] = system: human colon cancer cell SW620; assay: MTT assay, growth of SW620 cells, compounds combined with CPT-11; assay type: cell-based; details: for IC50: 205 nM CPT-11, 5 days, MTT
Protocol: (§1) SW620 cells were digested by trypsinase, centrifuged at 800 rpm for 5 minutes, the supernatant was discarded, resuspended with fresh medium (RPMI 1640 medium+10% FBS) and counted. The cells were seeded into 96-well cell culture plate with appropriate cell density and incubated overnight in a 37° C. 5% CO2 incubator. The stock solutions of the tested compound and the reference compound AZD0156 were serially diluted to 8 concentrations by DMSO at the ratios of 1:3 and 1:10, respectively, and the last concentration was negative control of DMSO (0 μM, the final concentration of DMSO was 1%). 5 μL of each concentration was added to 120 μL of medium (25 times diluted) and mixed by shaking. The overnight cells were taken and the culture medium was removed, 195 μL of fresh medium containing 205 nM CPT-11 was added to each well, and 5 μL of diluted medium containing the corresponding concentration of the tested sample was added respectively, and the culture plate was then placed in the 5% CO2 cell culture incubator at 37° C. for 5 days. After removing the original solution, 100 μL of fresh serum-free DMEM medium containing MTT (0.5 mg/mL) was added to each well, the culture was continued. After 4 hours, the original solution was removed, 100 μL of DMSO was added into each well, the 96-well plates were shaken away from light for 10 minutes and placed in a multi-function reader to read the absorbance at the wavelength of 552/630/690 nm. GraphPad Prism 6.0 was used to analyze the data. The inhibitory activity of compounds on cell proliferation was plotted based on cell viability and compound concentration. The IC50 value was fitted by a sigmoidal dose response curve equation Y=100/(1+10^(Log C−Log IC50)), where C was the concentration of compound.

[2] = system: human breast cancer cell MDA-MB-468; assay: MTT assay, growth of MDA-MB-468 cells; assay type: cell-based; details: for IC50: single agent, 7 days, MTT
Protocol: as §1, with “MDA-MB-468 cells” for “SW620 cells”, “1:10, respectively:” for “1:10, respectively, and”, “medium (PRMI 1640+5% FBS)” for “medium containing 205 nM CPT-11”, “for 7 days (On the fourth day, the medium containing drugs was removed and fresh medium containing drugs was added for continuous cultivation).” for “for 5 days.”

[3] = 0.5 h, detected concentration 1 μm
[4] = Homo sapiens, MDA-MB-468, 168 h

Chain of ATM enzyme (human) (Q13315 whole entry): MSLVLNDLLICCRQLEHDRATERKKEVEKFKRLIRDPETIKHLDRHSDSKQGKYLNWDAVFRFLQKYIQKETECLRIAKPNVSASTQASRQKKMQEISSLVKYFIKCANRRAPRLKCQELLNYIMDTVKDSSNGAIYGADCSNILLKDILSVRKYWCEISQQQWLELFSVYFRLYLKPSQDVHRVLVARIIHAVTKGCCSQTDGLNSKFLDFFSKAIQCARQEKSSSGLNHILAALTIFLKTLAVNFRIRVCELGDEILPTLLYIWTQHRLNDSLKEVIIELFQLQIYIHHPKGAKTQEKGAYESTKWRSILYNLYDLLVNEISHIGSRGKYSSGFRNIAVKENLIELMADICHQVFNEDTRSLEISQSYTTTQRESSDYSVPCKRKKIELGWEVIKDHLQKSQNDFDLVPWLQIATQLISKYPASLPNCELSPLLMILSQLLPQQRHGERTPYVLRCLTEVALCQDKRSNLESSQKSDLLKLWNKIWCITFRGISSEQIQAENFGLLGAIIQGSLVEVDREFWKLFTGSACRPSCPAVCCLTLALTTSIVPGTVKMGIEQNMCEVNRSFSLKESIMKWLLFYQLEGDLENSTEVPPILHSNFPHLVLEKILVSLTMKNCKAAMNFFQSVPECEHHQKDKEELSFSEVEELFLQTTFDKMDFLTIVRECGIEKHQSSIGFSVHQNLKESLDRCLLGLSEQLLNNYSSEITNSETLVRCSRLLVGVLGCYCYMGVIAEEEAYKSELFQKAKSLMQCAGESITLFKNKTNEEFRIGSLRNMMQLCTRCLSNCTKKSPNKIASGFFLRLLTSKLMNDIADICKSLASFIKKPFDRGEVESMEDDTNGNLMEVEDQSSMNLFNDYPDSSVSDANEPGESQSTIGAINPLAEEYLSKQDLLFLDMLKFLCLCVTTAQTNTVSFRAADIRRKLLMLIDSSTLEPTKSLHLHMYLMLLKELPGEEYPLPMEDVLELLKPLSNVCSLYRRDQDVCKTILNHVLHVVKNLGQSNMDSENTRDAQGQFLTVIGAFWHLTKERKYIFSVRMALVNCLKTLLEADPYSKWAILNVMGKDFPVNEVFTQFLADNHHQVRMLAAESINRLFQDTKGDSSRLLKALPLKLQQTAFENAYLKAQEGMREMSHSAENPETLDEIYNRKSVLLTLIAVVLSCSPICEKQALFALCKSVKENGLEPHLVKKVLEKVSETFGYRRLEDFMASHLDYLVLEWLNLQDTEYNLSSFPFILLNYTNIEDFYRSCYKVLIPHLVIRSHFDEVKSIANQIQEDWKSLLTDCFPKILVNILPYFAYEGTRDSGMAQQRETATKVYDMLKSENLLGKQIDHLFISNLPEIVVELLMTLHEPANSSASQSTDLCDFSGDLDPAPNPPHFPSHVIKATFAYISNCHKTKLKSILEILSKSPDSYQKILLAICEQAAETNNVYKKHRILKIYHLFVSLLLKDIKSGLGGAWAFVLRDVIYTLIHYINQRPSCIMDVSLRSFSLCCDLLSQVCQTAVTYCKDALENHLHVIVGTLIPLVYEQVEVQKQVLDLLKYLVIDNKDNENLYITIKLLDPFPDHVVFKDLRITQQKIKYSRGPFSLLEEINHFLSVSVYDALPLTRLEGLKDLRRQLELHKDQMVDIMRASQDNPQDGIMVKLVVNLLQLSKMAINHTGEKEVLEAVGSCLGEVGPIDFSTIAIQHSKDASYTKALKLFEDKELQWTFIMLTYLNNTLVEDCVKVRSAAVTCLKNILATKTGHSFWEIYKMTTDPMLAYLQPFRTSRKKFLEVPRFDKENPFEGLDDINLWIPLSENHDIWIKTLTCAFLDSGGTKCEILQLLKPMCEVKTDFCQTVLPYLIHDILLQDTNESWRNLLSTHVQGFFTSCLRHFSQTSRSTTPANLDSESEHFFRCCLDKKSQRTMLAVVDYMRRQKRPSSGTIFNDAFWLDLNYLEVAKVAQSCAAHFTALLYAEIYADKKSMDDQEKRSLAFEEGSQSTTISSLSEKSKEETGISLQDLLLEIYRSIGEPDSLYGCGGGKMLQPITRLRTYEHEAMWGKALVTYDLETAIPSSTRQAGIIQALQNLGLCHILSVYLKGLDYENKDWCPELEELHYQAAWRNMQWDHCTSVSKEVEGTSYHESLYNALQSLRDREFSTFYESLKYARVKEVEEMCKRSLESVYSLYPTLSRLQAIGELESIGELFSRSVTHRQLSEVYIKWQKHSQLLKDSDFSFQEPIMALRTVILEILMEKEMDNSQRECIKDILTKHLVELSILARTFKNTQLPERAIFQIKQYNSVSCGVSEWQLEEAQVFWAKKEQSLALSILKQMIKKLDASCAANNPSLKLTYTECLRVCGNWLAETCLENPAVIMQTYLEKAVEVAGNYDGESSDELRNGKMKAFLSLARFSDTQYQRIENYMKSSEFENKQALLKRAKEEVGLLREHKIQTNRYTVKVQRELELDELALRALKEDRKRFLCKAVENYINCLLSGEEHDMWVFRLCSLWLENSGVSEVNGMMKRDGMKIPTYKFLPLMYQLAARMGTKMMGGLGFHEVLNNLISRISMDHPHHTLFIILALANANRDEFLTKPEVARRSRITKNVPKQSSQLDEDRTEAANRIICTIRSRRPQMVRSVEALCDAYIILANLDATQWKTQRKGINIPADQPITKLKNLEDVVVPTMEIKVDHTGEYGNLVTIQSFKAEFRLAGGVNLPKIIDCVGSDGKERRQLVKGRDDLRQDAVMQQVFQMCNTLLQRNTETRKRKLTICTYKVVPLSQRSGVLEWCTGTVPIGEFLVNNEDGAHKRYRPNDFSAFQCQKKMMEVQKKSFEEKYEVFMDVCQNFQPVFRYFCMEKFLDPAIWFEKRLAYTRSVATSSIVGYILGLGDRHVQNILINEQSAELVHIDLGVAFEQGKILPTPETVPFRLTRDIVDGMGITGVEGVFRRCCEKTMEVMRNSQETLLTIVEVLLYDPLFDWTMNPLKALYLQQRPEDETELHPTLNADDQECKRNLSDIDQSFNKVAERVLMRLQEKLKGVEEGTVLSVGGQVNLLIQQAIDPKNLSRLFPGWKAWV

Compound: CN(C)CCCOc1ccc(-c2ccc3nc4cccc(N5CCOCC5)c4n3c2)cc1 [Example 4, N,N-dimethyl-3-(4-(9-morpholinobenzo[4,5]imidazo[1,2-a]pyridin-2-yl)phenoxy)propan-1-amine]
- inhibition at 1 µM (ATM enzyme (human); [3]): 74%
- IC50 ([1]; Homo sapiens, SW-620, 120 h): 5480 nM

Compound: CN(C)CCCOc1ccc(-c2ccc3nc4cccc(NC5CCOCC5)c4n3c2)cn1 [Example 14, N,N-dimethyl-3-((5-(9-(tetrahydro-2H-pyran-4-ylamino)benzo[4,5]imidazo[1,2-a]pyridin-2-yl)pyridin-2-yl)oxy)propan-1-amine]
- inhibition at 1 µM (ATM enzyme (human); [3]): 48%
- IC50 ([1]; Homo sapiens, SW-620, 120 h): > 10000 nM

Compound: CN1CCN(c2ccc(-c3cccc4nc5ccc(N6CCOCC6)cc5n34)cn2)CC1 [Example 16, 1-(6-(4-methylpiperazin-1-yl)pyridin-3-yl)-8-morpholinobenzo[4,5]imidazo[1,2-a]pyridine]
- inhibition at 1 µM (ATM enzyme (human); [3]): 53%
- IC50 ([1]; Homo sapiens, SW-620, 120 h): > 10000 nM
- IC50 [2, 4]: > 10000 nM

Compound: CN(C)C1CCN(c2ccc(-c3ccc4nc5cccc(N6CCC(N(C)C)CC6)c5n4c3)cc2)CC1 [Example 56, N,N-dimethyl-1-(4-(9-(4-(dimethylamino)piperidin-1-yl)benzo[4,5]imidazo[1,2-a]pyridin-2-yl)phenyl)piperidin-4-amine]
- inhibition at 1 µM (ATM enzyme (human); [3]): 81%
- IC50 ([1]; Homo sapiens, SW-620, 120 h): 40.9 nM
- growth of SW620 cell (in words) ([1]; MTT assay): inhibited the growth
- IC50 [2, 4]: 41.4 nM
- growth of MDA-MB-468 cell (in words) ([2]; MTT assay): inhibited the growth

Compound: C[C@@H]1CN(c2ncnc3nc4ccc(-c5ccc(N6CCC(N(C)C)CC6)cc5)nn4c23)C[C@H](C)N1C [Example 71, N,N-dimethyl-1-(4-(4-((3 S,5R)-3,4,5-trimethylpiperazin-1-yl)pyridazino[6,1-f]purin-7-yl)phenyl)piperidin-4-amine]
- IC50 ([1]; Homo sapiens, SW-620, 120 h): 1240 nM
- IC50 [2, 4]: 1800 nM

Compound: CN(C)CCCOc1ccc(-c2ccc3nc4cccc(C5=CCOCC5)c4n3c2)cc1 [Example 2, N,N-dimethyl-3-(4-(9-(3,6-dihydro-2H-pyran-4-yl)benzo[4,5]imidazo[1,2-a]pyridin-2-yl)phenoxy)propan-1-amine]
- inhibition at 1 µM (ATM enzyme (human); [3]): 81%
- IC50 ([1]; Homo sapiens, SW-620, 120 h): 1660 nM

Compound: CN(C)CCCOc1ccc(-c2ccc3nc4cccc(N5CCN(C)CC5)c4n3c2)cc1 [Example 3, N,N-dimethyl-3-(4-(9-(4-methylpiperazin-1-yl)benzo[4,5]imidazo[1,2-a]pyridin-2-yl)phenoxy)propan-1-amine]
- IC50 ([1]; Homo sapiens, SW-620, 120 h): 563 nM
- IC50 [2, 4]: 330 nM

Compound: CN(C)CCCOc1ccc(-c2ccc3nc4cccc(N5CCOCC5)c4n3c2)cn1 [Example 6, N,N-dimethyl-3-((5-(9-morpholinobenzo[4,5]imidazo[1,2-a]pyridin-2-yl)pyridin-2-yl)oxy)propan-1-amine]
- inhibition at 1 µM (ATM enzyme (human); [3]): 77%
- IC50 ([1]; Homo sapiens, SW-620, 120 h): 2470 nM

Compound: CN(C)CCCOc1ccc(-c2ccc3nc4cccc(N5CCN(C)CC5)c4n3c2)cn1 [Example 7, N,N-dimethyl-3-((5-(9-(4-methylpiperazin-1-yl)benzo[4,5]imidazo[1,2-a]pyridin-2-yl)pyridin-2-yl)oxy)propan-1-amine]
- inhibition at 1 µM (ATM enzyme (human); [3]): 64%
- IC50 ([1]; Homo sapiens, SW-620, 120 h): > 10000 nM

Compound: CN(C)C1CCN(c2ccc(-c3ccc4nc5cccc(N6CCOCC6)c5n4c3)cc2)CC1 [Example 41, N,N-dimethyl-1-(4-(9-morpholinobenzo[4,5]imidazo[1,2-a]pyridin-2-yl)phenyl)piperidin-4-amine]
- inhibition at 1 µM (ATM enzyme (human); [3]): 82%
- IC50 ([1]; Homo sapiens, SW-620, 120 h): 3480 nM

Compound: CN(C)C1CCN(c2ccc(-c3ccc4nc5cccc(C6=CCOCC6)c5n4c3)cc2)CC1 [Example 39, N,N-dimethyl-1-(4-(9-(3,6-dihydro-2H-pyran-4-yl)benzo[4,5]imidazo[1,2-a]pyridin-2-yl)phenyl)piperidin-4-amine]
- inhibition at 0.01 µM (ATM enzyme (human); 0.5 h, detected concentration 0.01 μm): 17%
- inhibition at 0.1 µM (ATM enzyme (human); 0.5 h, detected concentration 0.1 μm): 62%
- inhibition at 1 µM (ATM enzyme (human); [3]): 91%
- IC50 ([1]; Homo sapiens, SW-620, 120 h): 1510 nM

Compound: C[C@@H]1CN(c2cccc3nc4ccc(-c5ccc(OCCCN(C)C)c(F)c5)cn4c23)C[C@H](C)N1C [Example 50, N,N-dimethyl-3-(2-fluoro-4-(9-((3S,5R)-3,4,5-trimethylpiperazin-1-yl)benzo[4,5]imidazo[1,2-a]pyridin-2-yl)phenoxy)propan-1-amine]
- IC50 ([1]; Homo sapiens, SW-620, 120 h): > 1000 nM
- IC50 [2, 4]: > 1000 nM

Compound: CN(C)CCCOc1ccc(-c2ccc3nc4cccc(OC5CCOCC5)c4n3c2)cn1 [Example 13, N,N-dimethyl-3-((5-(9-((tetrahydro-2H-pyran-4-yl)oxy)benzo[4,5]imidazo[1,2-a]pyridin-2-yl)pyridin-2-yl)oxy)propan-1-amine]
- inhibition at 1 µM (ATM enzyme (human); [3]): 86%
- IC50 ([1]; Homo sapiens, SW-620, 120 h): 1570 nM

Compound: N,N-dimethyl-1-(2-(trifluoromethyl)-4-(942S,6R)-2,6-dimethylmorpholino)benzo[4,5]imidazo[1,2-a]pyridin-2-yl)phenyl)piperidin-4-amine [Example 54]
- IC50 [1]: 193 nM
- IC50 [2]: 220 nM

Compound: CN(C)CCCOc1ccc(-c2ccc3nc4cccc(CN5CCN(C)CC5)c4n3c2)cn1 [Example 11]
- inhibition(%) of ATM kinase (ATM enzyme (human); detected concentration 1 μm): 63%
- IC50 [1]: 1040 nM

Compound: N,N-dimethyl-3-(2-(trifluoromethyl)-4-(942S,6R)-2,6-dimethylmorpholino)benzo[4,5]imidazo[1,2-a]pyridin-2-yl)phenoxy)propan-1-amine [Example 55]
- IC50 [1]: 228 nM
- IC50 [2]: 255 nM

Compound: C[C@@H]1CN(c2cccc3nc4ccc(-c5ccc(OCCCN(C)C)c(C(F)(F)F)c5)cn4c23)C[C@H](C)N1C [Example 53, N,N-dimethyl-3-(2-(trifluoromethyl)-4-(9-((3S,5R)-3,4,5-trimethylpiperazin-1-yl)benzo[4,5]imidazo[1,2-a]pyridin-2-yl)phenoxy)propan-1-amine]
- inhibition at 1 µM (ATM enzyme (human); [3]): 100%
- IC50 ([1]; Homo sapiens, SW-620, 120 h): 162 nM

Compound: CN(C)C1CCN(c2ccc(-c3ccc4nc5cccc(C6=CCOCC6)c5n4c3)cn2)CC1 [Example 40, N,N-dimethyl-1-(5-(9-(3,6-dihydro-2H-pyran-4-yl)benzo[4,5]imidazo[1,2-a]pyridin-2-yl)pyridin-2-yl)piperidin-4-amine]
- inhibition at 1 µM (ATM enzyme (human); [3]): 96%
- IC50 ([1]; Homo sapiens, SW-620, 120 h): 2370 nM

Compound: CN(C)CCCOc1ccc(-c2ccc3nc4cccc(N5CCCCC5)c4n3c2)cn1 [Example 5, N,N-dimethyl-3-((5-(9-(piperidin-1-yl)benzo[4,5]imidazo[1,2-a]pyridin-2-yl)pyridin-2-yl)oxy)propan-1-amine]
- inhibition at 1 µM (ATM enzyme (human); [3]): 61%
- IC50 ([1]; Homo sapiens, SW-620, 120 h): > 10000 nM
